The values below are quoted from earlier work in PMC8066102, “Metabolic Profiles of New Unsymmetrical Bisacridine Antitumor Agents in Electrochemical and Enzymatic Noncellular Systems and in Tumor Cells” (Pharmaceuticals, 2021).

Details of the data set: method as in PMID 2810109, PMID 12920162. Conditions: after UGT2B7 glucuronidation; cited from earlier work.

`CN1CC[C@]23c4c5ccc(O)c4O[C@H]2[C@@H](O[C@@H]2O[C@H](C(=O)O)[C@@H](O)[C@H](O)[C@H]2O)C=C[C@H]3[C@H]1C5` [morphine-6-glucuronide]: the “analgesic activity relative to morphine” value is on record as 650 fold.
